# Experimental data reported in patent publication US10869844B2, “Methods for the treatment of depression” (Janssen Pharmaceutica NV, priority 2014, dated 2020).
# Read-outs that look alike come from different tables or passages of the source.
# System: adult subjects with TRD
# [1] = Met carriers, Day 18 after Day 17, all responders (Day 17)
# [2] = Met carriers, Day 18 after Day 17, esketamine responders (Day 17) per Day 1 randomization
# [3] = Val/Val (of 7), esketamine subjects per Day 1 randomization, 18 days after last dose
# [4] = Val/Val, DAY 02, randomized to esketamine Day 1
# [5] = Val/Val, DAY 07, randomized to esketamine Day 1
# [6] = Val/Val, DAY 07, randomized to placebo Day 1, esketamine from day 4 onward
# [7] = Val/Val, DAY 17, randomized to esketamine Day 1
# [8] = Val/Val, DAY 17, randomized to placebo Day 1, esketamine from day 4 onward
# [9] = Val/Val, DAY 35, randomized to esketamine Day 1
# [10] = Val/Val, DAY 35, randomized to placebo Day 1, esketamine from day 4 onward
# [11] = Val/Val, Day 0 after Day 17, all responders (Day 17)
# [12] = Val/Val, Day 0 after Day 17, esketamine responders (Day 17) per Day 1 randomization
# [13] = Val/Val, Day 11 after Day 17, all responders (Day 17)
# [14] = esketamine subjects, Days 2, 7, 17 and 35
smiles,measurement,setting,value
"CN[C@]1(c2ccccc2Cl)CCCCC1=O.Cl [Esketamine, (S)-2-(2-chlorophenyl)-2-(methylamino)cyclohexanone hydrochloride]","Duration of response, survival function estimate: Failure",[1],0.5714
same,"Duration of response, survival function estimate: Survival",[1],0.4286
same,"Duration of response, survival function estimate: Failure",[2],0.6667
same,"Duration of response, survival function estimate: Survival",[2],0.3333
same,"Day 17 responders who maintained response status up to Day 35, %",[3],100%
same,"Day 17 responders who maintained response status up to Day 35, number",[3],7
same,Non-remitters %,[4],37.5%
same,Non-remitters No.,[4],3
same,Non-responders %,[4],25.0%
same,Non-responders No.,[4],2
same,Remitters % (MADRS total score 10),[4],62.5%
same,Remitters No. (MADRS total score 10),[4],5
same,Responders % (MADRS total score reduction >50%),[4],75.0%
same,Responders No. (MADRS total score reduction >50%),[4],6
same,Non-remitters %,[5],25.0%
same,Non-remitters No.,[5],2
same,Non-responders %,[5],25.0%
same,Non-responders No.,[5],2
same,Remitters % (MADRS total score 10),[5],75.0%
same,Remitters No. (MADRS total score 10),[5],6
same,Responders % (MADRS total score reduction >50%),[5],75.0%
same,Responders No. (MADRS total score reduction >50%),[5],6
same,Non-remitters %,[6],42.9%
same,Non-remitters No.,[6],3
same,Non-responders %,[6],28.6%
same,Non-responders No.,[6],2
same,Remitters % (MADRS total score 10),[6],57.1%
same,Remitters No. (MADRS total score 10),[6],4
same,Responders % (MADRS total score reduction >50%),[6],71.4%
same,Responders No. (MADRS total score reduction >50%),[6],5
same,Non-remitters %,[7],12.5%
same,Non-remitters No.,[7],1
same,Non-responders %,[7],12.5%
same,Non-responders No.,[7],1
same,Remitters % (MADRS total score 10),[7],87.5%
same,Remitters No. (MADRS total score 10),[7],7
same,Responders % (MADRS total score reduction >50%),[7],87.5%
same,Responders No. (MADRS total score reduction >50%),[7],7
same,Non-remitters %,[8],57.1%
same,Non-remitters No.,[8],4
same,Non-responders %,[8],28.6%
same,Non-responders No.,[8],2
same,Remitters % (MADRS total score 10),[8],42.9%
same,Remitters No. (MADRS total score 10),[8],3
same,Responders % (MADRS total score reduction >50%),[8],71.4%
same,Responders No. (MADRS total score reduction >50%),[8],5
same,Non-remitters %,[9],12.5%
same,Non-remitters No.,[9],1
same,Non-responders %,[9],12.5%
same,Non-responders No.,[9],1
same,Remitters % (MADRS total score 10),[9],87.5%
same,Remitters No. (MADRS total score 10),[9],7
same,Responders % (MADRS total score reduction >50%),[9],87.5%
same,Responders No. (MADRS total score reduction >50%),[9],7
same,Non-remitters %,[10],42.9%
same,Non-remitters No.,[10],3
same,Non-responders %,[10],42.9%
same,Non-responders No.,[10],3
same,Remitters % (MADRS total score 10),[10],57.1%
same,Remitters No. (MADRS total score 10),[10],4
same,Responders % (MADRS total score reduction >50%),[10],57.1%
same,Responders No. (MADRS total score reduction >50%),[10],4
same,"Duration of response, survival function estimate: Failure",[11],0
same,"Duration of response, survival function estimate: Survival",[11],1.0000
same,"Duration of response, survival function estimate: Failure",[12],0
same,"Duration of response, survival function estimate: Survival",[12],1.0000
same,"Duration of response, survival function estimate: Failure",[13],0.0833
same,"Duration of response, survival function estimate: Survival",[13],0.9167
same,"Subjects who remain well, number","Val/Val, by Day 35, of 7",7
same,"Responders on Day 17, number",all esketamine subjects per Day 1 randomization (Val/Val and Met carriers),13
same,"Remit rates, Val/Val vs Met carriers",[14],remit rates were higher in Val/Val subjects than in Met carriers at all timepoints
same,"Response rates, Val/Val vs Met carriers",[14],response rates were higher in Val/Val subjects than in Met carriers
